Measurements taken from US20240180872A1, “METHODS AND COMPOUNDS OF CANNABIDIOL, MELATONIN AND AKBA FOR TREATING PANCREATIC CANCER” (priority 2021, published 2024).

Columns and labels:
MIAPaCa-2 cell line = assay: Cytotoxicity assay (MTT, 72 hours, daily administration) in MIAPaCa-2; details: Homo sapiens, MIA PaCa-2, read-out: % VIABILITY ± S.D.
Description: (§2) Human pancreatic ductal adenocarcinoma (PANC-1 and MIAPaCa-2) cell lines were purchased by Sigma Aldrich (Milan, Italy) and cultured in DMEM high glucose medium (EuroClone, Milan, Italy) supplemented with 10% of fetal bovine serum (FBS), 2 mM L-glutamine, 100 IU/mL penicillin, 100 mg streptomycin and 1 mM sodium pyruvate. Cell lines were maintained at 37° C. with 5% CO2 and 95% of humidity.
(§3) 3×10^4 cells/mL were seeded in 96-well plates in a final volume of 100 L/well. After one day of incubation, compounds or vehicles, alone or in combination, were added and six replicates were used for each treatment and all experiments were repeated three times. In all the experiments, the treatment was daily added, after washing with fresh medium. After 72 hours cell viability was investigated by adding 0.8 mg/mL of 3-[4,5-dimethylthiazol-2-yl]-2,5 diphenyl tetrazolium bromide (MTT) (Sigma Aldrich) to the media. After 3 h the supernatant was removed, and the pellet of salt crystals was solubilized with 100 μL/well of DMSO. The absorbance of the sample against a background control was measured at 570 nm using an ELISA reader microliter plate (BioTek Instruments, Winooski, VT, USA).
(§4) Cytotoxicity in PDAC cell lines: The effect of CBD, MLT and AKBA in reducing cell viability was evaluated at 72 hours, post daily administration, in PDAC cell lines. Cells were treated with different doses of CBD, MLT and AKBA (up to 1 mg) and percentage of cell viability was evaluated by the MTT assay. […] The compounds were administered daily for 72 hours, as in previous experiments at the desired doses. […] MTT assay was used to analyse the cell cytotoxicity.

[1] = test system: pancreatic adenocarcinoma associated genes; assay: TaqMan Array gene expression in PANC-1, normalized for GAPDH; details: 24 hs, CBD 3.8, MLT 200, AKBA 7.5 micrograms/ml
Description: Total RNA from untreated or CBD, MLT, AKBA alone and in combination treated cell lines was extracted using Rneasy Mini kit (Qiagen, Milan, Italy). One microgram of total RNA from each sample was subjected to reverse transcription in a total volume of 20 μL using the High-Capacity cDNA Archive Kit (Applied Biosystem, Foster City, […], USA) according to the instructions. cDNAs were analyzed by qRT-PCR performed using an IQ5 Multicolor Real time PCR Detection system. Quantitative real-time gene expression was performed with the TaqMan® Array Human Pancreatic Adenocarcinoma 96-well Plate, containing 92 assays to pancreatic adenocarcinoma associated genes and 4 assays to candidate endogenous control genes, was purchased (Thermo Fisher, Grand Island, NY, USA) and used to evaluate the treatments in modulating PDAC-related genes (Table 1). Measurement of different housekeeping genes (GAPDH; HPRT1; GUSB) on the samples was used to normalize mRNA content. The gene expression levels of treated cell lines were expressed as relative fold compared with untreated or vehicle-treated cells.
To elucidate the molecular events induced by CBD, MLT and AKBA alone and in combination, 92 genes involved in PDAC progression and aggressiveness were evaluated by Taqman Array. Both cell lines were treated with CBD, MLT and AKBA alone and in combination, and the molecular pathways of PDAC associated gene were evaluated.
Target mRNA levels were normalized for GAPDH expression.

[2] = test system: U251 Glioblastoma cell line; assay: Cytotoxicity assay (MTT, 72 hours, daily administration) in U251; format: cell-based; details: Homo sapiens, U-251, read-out: % VIABILITY ± S.D.
From the text: (§1) The combinations were effective in other human tumor cell lines and we tested in glioblastoma cell line and endometrial cancer cell Additional tests include data obtained from two independent experiments, six wells for dose.

[3] = test system: PCEM004a endometrial cancer cell line; assay: Cytotoxicity assay (MTT, 72 hours, daily administration) in PCEM004a; format: cell-based; details: Homo sapiens, read-out: % VIABILITY ± S.D.
From the text: as §1

PANC-1 cell line = assay: Cytotoxicity assay (MTT, 72 hours, daily administration) in PANC-1; details: Homo sapiens, PANC-1, read-out: % VIABILITY ± S.D.
Description: as §2, §3, §4

SMILES: COc1ccc2[nH]cc(CCNC(C)=O)c2c1 [MLT, N-[2-(5-methoxy-1H-indol-3-yl)ethyl]acetamide]
- viability at 100 µg/mL (MIAPaCa-2 cell line): 100 ± 8.8%
- viability at 200 µg/mL (MIAPaCa-2 cell line): 87.8 ± 8.2%
- viability at 400 µg/mL (MIAPaCa-2 cell line): 78.2 ± 8.5%
- viability at 800 µg/mL (MIAPaCa-2 cell line): 12.5 ± 0.8%
- AKT3 mRNA relative expression ([1]; VEI 0.00): 0.00
- ARHGEF7 mRNA relative expression ([1]; VEI 0.00): 0.017
- BCL2 mRNA relative expression ([1]; VEI 0.00): 0.00
- CCND2 mRNA relative expression ([1]; VEI 0.00): 0.00
- CDKN2B mRNA relative expression ([1]; VEI 0.00): 1.65
- CYP2E1 mRNA relative expression ([1]; VEI 0.00): 0.00
- EGF mRNA relative expression ([1]; VEI 0.00): 0.00
- IGF1 mRNA relative expression ([1]; VEI 0.00): 0.00
- IL6 mRNA relative expression ([1]; VEI 0.00): 0.00
- KDR mRNA relative expression ([1]; VEI 0.00): 0.00
- KIT mRNA relative expression ([1]; VEI 0.00): 0.01
- MAPK3 mRNA relative expression ([1]; VEI 0.00): 0.00
- MMP1 mRNA relative expression ([1]; VEI 0.00): 0.07
- MMP3 mRNA relative expression ([1]; VEI 0.00): 0.00
- TGFA mRNA relative expression ([1]; VEI 0.00): 0.22
- TGFB2 mRNA relative expression ([1]; VEI 0.00): 0.00
- JAK2 mRNA relative expression ([1]; VEI 0.01): 0.01
- JAK3 mRNA relative expression ([1]; VEI 0.01): 0.00
- MMP7 mRNA relative expression ([1]; VEI 0.01): 0.01
- MMP9 mRNA relative expression ([1]; VEI 0.01): 0.04
- PK3CA mRNA relative expression ([1]; VEI 0.01): 0.00
- RAC2 mRNA relative expression ([1]; VEI 0.01): 0.01
- RB1 mRNA relative expression ([1]; VEI 0.01): 0.03
- TGFB3 mRNA relative expression ([1]; VEI 0.01): 0.00
- TGFBR1 mRNA relative expression ([1]; VEI 0.02): 0.00
- BRCA2 mRNA relative expression ([1]; VEI 0.03): 0.34
- CDKN2D mRNA relative expression ([1]; VEI 0.03): 0.04
- MDM2 mRNA relative expression ([1]; VEI 0.03): 0.00
- RHOB mRNA relative expression ([1]; VEI 0.03): 0.03
- CDKN2C mRNA relative expression ([1]; VEI 0.04): 0.14
- PK3R1 mRNA relative expression ([1]; VEI 0.04): 0.02
- PTGS2 mRNA relative expression ([1]; VEI 0.04): 0.02
- STATSB mRNA relative expression ([1]; VEI 0.04): 0.45
- MAPK1 mRNA relative expression ([1]; VEI 0.05): 0.02
- SMAD2 mRNA relative expression ([1]; VEI 0.05): 0.19
- CCND1 mRNA relative expression ([1]; VEI 0.06): 0.10
- MAP2K2 mRNA relative expression ([1]; VEI 0.06): 0.08
- PK3CD mRNA relative expression ([1]; VEI 0.06): 0.06
- TGFBR2 mRNA relative expression ([1]; VEI 0.06): 0.00
- VEGFA mRNA relative expression ([1]; VEI 0.06): 0.03
- VEGFB mRNA relative expression ([1]; VEI 0.06): 0.05
- CCNA2 mRNA relative expression ([1]; VEI 0.07): 0.07
- CCNE2 mRNA relative expression ([1]; VEI 0.07): 0.07
- EZF3 mRNA relative expression ([1]; VEI 0.07): 0.08
- SMAD4 mRNA relative expression ([1]; VEI 0.07): 0.08
- SOS1 mRNA relative expression ([1]; VEI 0.07): 0.06
- TGFB1 mRNA relative expression ([1]; VEI 0.07): 0.05
- MAP2K1 mRNA relative expression ([1]; VEI 0.08): 0.03
- MMP2 mRNA relative expression ([1]; VEI 0.08): 0.00
- VEGFC mRNA relative expression ([1]; VEI 0.08): 0.00
- CCNE1 mRNA relative expression ([1]; VEI 0.09): 0.11
- CDK2 mRNA relative expression ([1]; VEI 0.09): 0.07
- KRAS mRNA relative expression ([1]; VEI 0.09): 0.01
- RAC1 mRNA relative expression ([1]; VEI 0.09): 0.00
- REL mRNA relative expression ([1]; VEI 0.09): 0.08
- STAT2 mRNA relative expression ([1]; VEI 0.09): 0.00
- CDKN1B mRNA relative expression ([1]; VEI 0.10): 0.09
- CDKN2A mRNA relative expression ([1]; VEI 0.10): 0.16
- RELA mRNA relative expression ([1]; VEI 0.10): 0.00
- AKT1 mRNA relative expression ([1]; VEI 0.11): 0.10
- PK3CB mRNA relative expression ([1]; VEI 0.11): 0.13
- FIGF mRNA relative expression ([1]; VEI 0.14): 0.11
- TP53 mRNA relative expression ([1]; VEI 0.14): 0.29
- EZF4 mRNA relative expression ([1]; VEI 0.16): 0.16
- NFKB2 mRNA relative expression ([1]; VEI 0.16): 0.02
- EZF1 mRNA relative expression ([1]; VEI 0.17): 0.14
- SMAD3 mRNA relative expression ([1]; VEI 0.17): 0.22
- STAT1 mRNA relative expression ([1]; VEI 0.18): 0.12
- BRAF mRNA relative expression ([1]; VEI 0.22): 0.13
- BIRC5 mRNA relative expression ([1]; VEI 0.23): 0.13
- JAK1 mRNA relative expression ([1]; VEI 0.23): 0.02
- CDK4 mRNA relative expression ([1]; VEI 0.24): 0.17
- EGFR mRNA relative expression ([1]; VEI 0.24): 0.16
- RAF1 mRNA relative expression ([1]; VEI 0.25): 0.06
- CCNB1 mRNA relative expression ([1]; VEI 0.27): 0.33
- ERBB2 mRNA relative expression ([1]; VEI 0.27): 0.04
- SRC mRNA relative expression ([1]; VEI 0.27): 0.03
- GRB2 mRNA relative expression ([1]; VEI 0.31): 0.23
- BCL2L1 mRNA relative expression ([1]; VEI 0.35): 0.21
- HSP90AA1 mRNA relative expression ([1]; VEI 0.35): 0.00
- NFKB1 mRNA relative expression ([1]; VEI 0.35): 0.09
- RHOA mRNA relative expression ([1]; VEI 0.37): 0.07
- ELK1 mRNA relative expression ([1]; VEI 0.41): 0.09
- RELB mRNA relative expression ([1]; VEI 0.42): 0.06
- CDC42 mRNA relative expression ([1]; VEI 0.45): 0.00
- CDKN1A mRNA relative expression ([1]; VEI 0.49): 0.07
- AKT2 mRNA relative expression ([1]; VEI 0.50): 0.46
- HBEGF mRNA relative expression ([1]; VEI 0.53): 0.39
- NOTCH1 mRNA relative expression ([1]; VEI 1.03): 0.32
- STAT6 mRNA relative expression ([1]; VEI 1.38): 0.01
- STAT3 mRNA relative expression ([1]; VEI 4.45): 0.07
- viability at 100 µg/mL [2]: 100 ± 2.3%
- viability at 200 µg/mL [2]: 65.4 ± 4.4%
- viability at 400 µg/mL [2]: 58.2 ± 4.1%
- viability at 800 µg/mL [2]: 17 ± 1.1%
- viability at 100 µg/mL [3]: 96.5 ± 8.2%
- viability at 200 µg/mL [3]: 90.4 ± 6.2%
- viability at 400 µg/mL [3]: 80.1 ± 5.3%
- viability at 800 µg/mL [3]: 31.3 ± 2.8%
- viability at 100 µg/mL (PANC-1 cell line): 100 ± 5.7%
- viability at 200 µg/mL (PANC-1 cell line): 97.4 ± 6.1%
- viability at 400 µg/mL (PANC-1 cell line): 83.9 ± 6.1%
- viability at 800 µg/mL (PANC-1 cell line): 19.2 ± 1.1%
